In the supplement of paper PMC10307832:

How the values were obtained:
Assay in all cases: relative viability (nuclei count vs DMSO), 5 days (fraction); higher = more cells survive
[1] = compound: Nc1nc(Nc2ccc3c(c2)CC[C@@H](N2CCCC2)CC3)nn1-c1cc2c(nn1)-c1ccccc1CCC2 [Bemcentinib] + Nc1nc2[nH]cc(CCc3ccc(C(=O)N[C@@H](CCC(=O)O)C(=O)O)cc3)c2c(=O)[nH]1 [Pemetrexed] (partner 0.2 µM)
In short: (§1)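 Relative viability was taken as the ratio of nuclei in treated wells to nuclei in vehicle wells. Lung cancer cell lines in 1536-well plates received compounds by pin tool one day after seeding, either one drug alone or a fixed anchor-drug dose plus five library-drug doses (not always all listed) in √10 steps. Nuclei were counted on 4× images after 5 days of treatment, and values are medians of duplicate plates.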

[2] = compound: CNC(=O)c1ccccc1Sc1ccc2c(/C=C/c3ccccn3)n[nH]c2c1 [Axitinib] + CS(=O)(=O)N1CCN(Cc2cc3nc(-c4cccc5[nH]ncc45)nc(N4CCOCC4)c3s2)CC1 [Pictilisib] (partner 1 µM)
In short: as §1

[3] = compound: Nc1nc(Nc2ccc3c(c2)CC[C@@H](N2CCCC2)CC3)nn1-c1cc2c(nn1)-c1ccccc1CCC2 [Bemcentinib] + CC(=O)c1c(C)c2cnc(Nc3ccc(N4CCNCC4)cn3)nc2n(C2CCCC2)c1=O [Palbociclib] (partner 0.5 µM)
In short: as §1

[4] = compound: CNC(=O)c1ccccc1Sc1ccc2c(/C=C/c3ccccn3)n[nH]c2c1 [Axitinib] + C[C@]1(O)C[C@@H](c2nc(-c3ccc4ccc(-c5ccccc5)nc4c3)c3c(N)nccn32)C1 [Linsitinib] (partner 1 µM)
In short: as §1

Cell Line	relative viability ([1]; first compound 0.04 µM)	relative viability ([1]; first compound 0.1265 µM)	relative viability ([1]; first compound 0.4 µM)	relative viability ([1]; first compound 1.265 µM)	relative viability ([1]; first compound 4 µM)	relative viability ([2]; first compound 0.005 µM)	relative viability ([2]; first compound 0.01581 µM)	relative viability ([2]; first compound 0.05 µM)	relative viability ([2]; first compound 0.1581 µM)	relative viability ([2]; first compound 0.5 µM)	relative viability ([3]; first compound 0.04 µM)	relative viability ([3]; first compound 0.1265 µM)	relative viability ([3]; first compound 0.4 µM)	relative viability ([3]; first compound 1.265 µM)	relative viability ([3]; first compound 4 µM)	relative viability ([4]; first compound 0.005 µM)	relative viability ([4]; first compound 0.01581 µM)	relative viability ([4]; first compound 0.05 µM)	relative viability ([4]; first compound 0.1581 µM)	relative viability ([4]; first compound 0.5 µM)
BEN	0.62	0.895	0.782	0.678	0.592	0.547	0.536	0.533	0.516	0.515	0.488	0.498	0.464	0.432	0.514	1.04	1.01	0.689	0.803	0.928
201T	0.307	0.361	0.326	0.361	0.327	0.671	0.69	0.662	0.675	0.675	0.333	0.314	0.392	0.363	0.389	1.08	1	1.02	0.965	0.966
NCI-H1792	0.918	0.988	1.06	0.68	0.85	0.311	0.251	0.213	0.275	0.271	0.711	0.714	0.675	0.721	0.664	0.575	0.629	0.527	0.557	0.504
NCI-H1666	0.884	0.845	0.813	0.885	0.827	0.414	0.459	0.433	0.512	0.584	0.656	0.645	0.675	0.683	0.672	0.926	0.917	0.786	0.8	0.912
NCI-H1993	0.566	0.59	0.623	0.584	0.62	0.763	0.952	0.805	0.772	0.781	0.62	0.723	0.718	0.651	0.708	0.725	0.745	0.773	0.79	0.826
CAL-12T	1.11	1.47	1.09	1.1	1.13	0.385	0.393	0.513	0.492	0.396	0.3	0.59	0.47	0.489	0.45	0.873	0.903	0.748	0.911	0.712
NCI-H460	0.0651	0.0562	0.0565	0.0602	0.0631	0.403	0.443	0.333	0.323	0.327	0.241	0.147	0.221	0.301	0.199	0.94	0.875	0.861	0.716	0.854
LC-2-ad	0.252	0.28	0.258	0.262	0.273	0.505	0.516	0.458	0.54	0.469	0.557	0.49	0.524	0.565	0.516	0.843	0.844	0.887	0.833	1.01
